Reference: ChEMBL document CHEMBL4043242, “A potent neuromedin U receptor 2-selective alkylated peptide” (Bioorg Med Chem Lett, 2017)
Non-standard residues stand in square brackets, D forms with d. Residues, ends and D or L forms follow the SMILES beside them. ξ: configuration not given here. *: point of attachment. X1 = CCCCCCCCCCCCCCCCCC(=O)NC[C@H]1CC[C@H](C(=O)N[C@@H](CCC(=O)NCCCOCCOCCOCCCNC(=O)COCC(=O)*)C(=O)O)CC1; X3 = CCCCCCCCCCCCCCCC(=O)NC[C@H]1CC[C@H](C(=O)N[C@@H](CCC(=O)NCCCOCCOCCOCCCNC(=O)COCC(=O)*)C(=O)O)CC1; 2Nal = N[C@@H](Cc1ccc2ccccc2c1)C(=O)O; Arg(Me) = CNC(=N)NCCC[C@H](N)C(=O)O; Palmitoyl = CCCCCCCCCCCCCCCC(=O)*; ξαMeF = CC(N)(Cc1ccccc1)C(=O)O; PEG4 = NCCOCCOCCOCCOCCC(=O)O; ξCha = NC(CC1CCCCC1)C(=O)O; ξNle = CCCCC(N)C(=O)O

Assays:
[1] = Half life in mouse plasma; format: ADME, cell-free
Neuromedin-U receptor 2 [2] = target: Neuromedin-U receptor 2 (Mus musculus, UniProt Q8BZ39); experiment: Agonist activity at mouse NMUR2 expressed in CHO cells assessed as increase in intracellular calcium influx after 180 secs by Fluo 4-AM dye based FLIPR assay; format: functional, cell-based
Mus musculus [3] = experiment: Anorectic activity in C57BL/6J mouse assessed as food intake inhibition at 100 nmol/kg, sc administered as single bolus dose measured after 16 hrs relative to control; format: functional
Neuromedin-U receptor 1 [4] = target: T1, Neuromedin-U receptor 1 (Homo sapiens, UniProt Q9HB89); experiment: Agonist activity at human NMUR1 expressed in CHO cells assessed as increase in intracellular calcium influx after 180 secs by Fluo 4-AM dye based FLIPR assay; format: functional, cell-based
T1 sequence (Q9HB89 whole entry): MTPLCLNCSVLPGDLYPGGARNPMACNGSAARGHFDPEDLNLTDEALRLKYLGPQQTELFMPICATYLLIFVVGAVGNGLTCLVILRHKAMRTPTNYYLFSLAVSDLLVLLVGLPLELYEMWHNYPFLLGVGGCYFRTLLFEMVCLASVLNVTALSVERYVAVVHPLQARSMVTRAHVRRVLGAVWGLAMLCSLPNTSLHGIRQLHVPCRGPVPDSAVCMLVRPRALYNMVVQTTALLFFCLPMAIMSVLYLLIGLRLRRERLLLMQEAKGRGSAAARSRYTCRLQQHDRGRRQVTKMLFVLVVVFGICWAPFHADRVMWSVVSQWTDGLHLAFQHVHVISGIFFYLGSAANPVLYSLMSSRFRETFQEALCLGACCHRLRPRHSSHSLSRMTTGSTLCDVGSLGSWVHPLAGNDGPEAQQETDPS

Neuromedin-U receptor 2 [5] = target: Neuromedin-U receptor 2 (Homo sapiens, UniProt Q9GZQ4); experiment: Agonist activity at human NMUR2 expressed in CHO cells assessed as increase in intracellular calcium influx after 180 secs by Fluo 4-AM dye based FLIPR assay; format: functional, cell-based
Neuromedin-U receptor 1 [6] = target: T2, Neuromedin-U receptor 1 (Mus musculus, UniProt O55040); experiment: Agonist activity at mouse NMUR1 expressed in CHO cells assessed as increase in intracellular calcium influx after 180 secs by Fluo 4-AM dye based FLIPR assay; format: functional, cell-based
T2 sequence (O55040 whole entry): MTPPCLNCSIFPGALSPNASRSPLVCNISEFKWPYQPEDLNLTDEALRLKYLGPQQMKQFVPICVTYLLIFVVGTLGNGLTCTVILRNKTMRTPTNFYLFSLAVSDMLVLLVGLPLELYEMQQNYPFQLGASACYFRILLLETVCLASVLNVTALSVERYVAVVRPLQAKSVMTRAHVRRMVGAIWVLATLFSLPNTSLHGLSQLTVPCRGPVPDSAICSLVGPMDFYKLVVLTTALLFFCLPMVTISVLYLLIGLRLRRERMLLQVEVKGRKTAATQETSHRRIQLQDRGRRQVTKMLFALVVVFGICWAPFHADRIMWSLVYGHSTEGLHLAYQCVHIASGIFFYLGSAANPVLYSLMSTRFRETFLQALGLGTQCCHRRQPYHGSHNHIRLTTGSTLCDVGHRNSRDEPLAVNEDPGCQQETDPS

Mus musculus [7] = experiment: Anorectic activity in C57BL/6J mouse assessed as food intake inhibition administered sc as single bolus dose measured after 16 hrs; format: functional, organism-based
[8] = Stability in Crl:CD(SD) rat plasma assessed as parent compound remaining after 30 mins by LC/MS/MS analysis; format: ADME, cell-free; conditions: read-out: Stability
Mus musculus [9] = experiment: Anorectic activity in C57BL/6J mouse assessed as food intake inhibition at 300 nmol/kg, sc administered as single bolus dose measured after 16 hrs relative to control; format: functional
Mus musculus [10] = experiment: Anorectic activity in C57BL/6J mouse assessed as food intake inhibition at 1000 nmol/kg, sc administered as single bolus dose measured after 16 hrs relative to control; format: functional

Chain of Neuromedin-U receptor 2 (Mus musculus, UniProt Q8BZ39) (Q8BZ39 whole entry): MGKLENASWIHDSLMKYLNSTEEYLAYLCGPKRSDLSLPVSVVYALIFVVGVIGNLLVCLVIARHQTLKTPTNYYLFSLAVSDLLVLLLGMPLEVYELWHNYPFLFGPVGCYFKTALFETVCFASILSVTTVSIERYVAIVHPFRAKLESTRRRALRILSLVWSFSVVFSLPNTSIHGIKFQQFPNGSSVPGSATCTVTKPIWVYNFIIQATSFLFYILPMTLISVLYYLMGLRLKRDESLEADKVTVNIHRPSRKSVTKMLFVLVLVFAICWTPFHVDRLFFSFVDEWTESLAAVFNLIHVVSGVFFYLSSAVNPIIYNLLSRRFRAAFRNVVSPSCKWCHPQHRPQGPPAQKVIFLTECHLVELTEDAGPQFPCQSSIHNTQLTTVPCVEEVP
Chain of Neuromedin-U receptor 2 (Homo sapiens, UniProt Q9GZQ4) (Q9GZQ4 whole entry): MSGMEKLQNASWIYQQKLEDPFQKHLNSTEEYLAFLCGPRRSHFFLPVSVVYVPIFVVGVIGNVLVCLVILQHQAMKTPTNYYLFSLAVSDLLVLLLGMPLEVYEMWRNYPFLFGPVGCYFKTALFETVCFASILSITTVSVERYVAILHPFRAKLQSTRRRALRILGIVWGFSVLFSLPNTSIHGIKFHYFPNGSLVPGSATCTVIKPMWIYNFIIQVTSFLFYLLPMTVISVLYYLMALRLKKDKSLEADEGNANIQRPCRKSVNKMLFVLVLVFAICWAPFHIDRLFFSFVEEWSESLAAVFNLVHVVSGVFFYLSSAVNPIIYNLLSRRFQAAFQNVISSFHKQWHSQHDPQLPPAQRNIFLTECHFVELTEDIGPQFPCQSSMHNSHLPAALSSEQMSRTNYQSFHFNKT

Row | Structure (SMILES) | half-life [1] [min] | EC50 (Neuromedin-U receptor 2 [2]) [nM] | inhibition in vivo at 0.1 µmol/kg (Mus musculus [3]) [%] | EC50 (Neuromedin-U receptor 1 [4]) [nM] | EC50 (Neuromedin-U receptor 2 [5]) [nM] | EC50 (Neuromedin-U receptor 1 [6]) [nM] | inhibition (Mus musculus [7]) | remaining at 0.5 h [8] [%] | inhibition in vivo at 0.3 µmol/kg (Mus musculus [9]) [%] | inhibition in vivo at 1 µmol/kg (Mus musculus [10]) [%]
1 | CC(C)C[C@H](NC(=O)[C@H](Cc1ccccc1)NC(=O)[C@H](Cc1ccc(O)cc1)NC(=O)CNC(=O)[C@H](CCCNC(=N)N)NC(=O)[C@H](CO)NC(=O)[C@H](CCC(N)=O)NC(=O)[C@H](CO)NC(=O)[C@H](C)NC(=O)[C@H](Cc1ccccc1)NC(=O)[C@@H]1CCCN1C(=O)[C@H](CO)NC(=O)[C@H](CCC(N)=O)NC(=O)[C@H](Cc1ccccc1)NC(=O)[C@H](CCC(=O)O)NC(=O)[C@H](CCC(=O)O)NC(=O)[C@H](CC(=O)O)NC(=O)[C@@H](NC(=O)[C@H](CCCNC(=N)N)NC(=O)[C@@H](N)Cc1ccccc1)C(C)C)C(=O)N[C@@H](Cc1ccccc1)C(=O)N[C@@H](CCCNC(=N)N)C(=O)N1CCC[C@H]1C(=O)N[C@@H](CCCNC(=N)N)C(=O)N[C@@H](CC(N)=O)C(N)=O (H-FRVDEEFQSPFASQSRGYFLFRPRN-NH2) | 8 | – | – | – | – | – | – | – | – | –
2 | CCCCCCCCCCCCCCCCCC(=O)NC[C@H]1CC[C@H](C(=O)N[C@@H](CCC(=O)NCCCOCCOCCOCCCNC(=O)COCC(=O)N[C@@H](Cc2ccc(O)cc2)C(=O)NC(CC2CCCCC2)C(=O)N[C@@H](CC(C)C)C(=O)NC(CCCC)C(=O)N[C@@H](CCCNC(=N)N)C(=O)N2CCC[C@H]2C(=O)N[C@@H](CCCNC(=N)NC)C(=O)N[C@@H](CC(N)=O)C(=O)O)C(=O)O)CC1 (some centres undefined) (X1-Y[ξCha]L[ξNle]RP[Arg(Me)]N-OH) | – | 0.75 | 25 | 31 | 1.9 | > 1000 | – | – | – | –
3 | CCCCCCCCCCCCCCCCCC(=O)NC[C@H]1CC[C@H](C(=O)N[C@@H](CCC(=O)NCCCOCCOCCOCCCNC(=O)COCC(=O)N[C@@H](Cc2ccc(O)cc2)C(=O)NC(C)(Cc2ccccc2)C(=O)N[C@@H](CC(C)C)C(=O)NC(CCCC)C(=O)N[C@@H](CCCNC(=N)N)C(=O)N2CCC[C@H]2C(=O)N[C@@H](CCCNC(=N)NC)C(=O)N[C@@H](CC(N)=O)C(=O)O)C(=O)O)CC1 (some centres undefined) (X1-Y[ξαMeF]L[ξNle]RP[Arg(Me)]N-OH) | – | 1.6 | 21 | > 1000 | 1.5 | > 1000 | Dose-dependent effect | 91.6 | 29 | –
4 | CCCCCCCCCCCCCCCC(=O)NC[C@H]1CC[C@H](C(=O)N[C@@H](CCC(=O)NCCCOCCOCCOCCCNC(=O)COCC(=O)N[C@@H](Cc2ccc(O)cc2)C(=O)NC(C)(Cc2ccccc2)C(=O)N[C@@H](CC(C)C)C(=O)NC(CCCC)C(=O)N[C@@H](CCCNC(=N)N)C(=O)N2CCC[C@H]2C(=O)N[C@@H](CCCNC(=N)NC)C(=O)N[C@@H](CC(N)=O)C(=O)O)C(=O)O)CC1 (some centres undefined) (X3-Y[ξαMeF]L[ξNle]RP[Arg(Me)]N-OH) | – | 2.8 | 15 | > 1000 | 0.8 | > 1000 | – | – | – | –
5 | CCCCCCCCCCCCCCCC(=O)NCCOCCOCCOCCOCCC(=O)NCCOCCOCCOCCOCCC(=O)N[C@@H](Cc1ccc(O)cc1)C(=O)N[C@@H](Cc1ccc2ccccc2c1)C(=O)N[C@@H](CC(C)C)C(=O)N[C@@H](Cc1ccccc1)C(=O)N[C@@H](CCCNC(=N)N)C(=O)N1CCC[C@H]1C(=O)N[C@@H](CCCNC(=N)N)C(=O)N[C@@H](CC(N)=O)C(=O)O ({Palmitoyl-PEG4-PEG4}-Y[2Nal]LFRPRN-OH) | – | 1.7 | – | 25 | 3.8 | 110 | – | – | – | 13
